Measurements published in patent US20240342199A1, “COMBINATION THERAPIES TARGETING MITOCHONDRIA FOR CANCER THERAPY” (The Wistar Institute of Anatomy and Biology, priority 2014, published 2024).

What was measured:
[1] = tested on: Akt2 (Ser474) in cytosol and mitochondria; experiment: Phosphorylated Akt in cytosol and mitochondrial extracts by Western blotting; assay type: cell-based, Human; conditions: pretreatment with 17-AAG; cytosol and mitochondria
Description: Subcellular and submitochondrial fractionation. Mitochondrial fractions were isolated using an ApoAlertTM cell fractionation kit (CLONTECH), as described. Submitochondrial fractions comprising outer membrane (OM), inner membrane (IM), inter-membrane space (IMS) and matrix were prepared as described.

[2] = tested on: Ser473-phosphorylated Akt (pAkt); experiment: Ser473-phosphorylated Akt in patient-derived organotypic cultures; assay type: cell-based, Human; conditions: tumor organoids, 48 h
Description: Organotypic cultures. Short-term organotypic cultures from the different patient samples were established as described previously. Briefly, precise thick tissue slices (300 μm) were obtained from each case by vibratome serial cutting (VT1200, Leica Microsystems, Milan, Italy), and cultured in six-well plates on organotypic inserts (Millicell PICM ORG, Merck Millipore) for up to 48 h in 1 ml of Ham-F12 complete medium supplemented with vehicle (DMSO, 2.5 μl), pan-PI3K inhibitor LY294002 (50 or 100 μM) or PX-886 (2.5, 5 or 10 μM), or mitochondrial-targeted small molecule Heat Shock Protein-90 (Hsp90) inhibitor, 10 Gamitrinib (GA mitochondrial matrix inhibitor, 10 or 25 μM), or the combination of PX-886 plus Gamitrinib (each agent used at 10 μM). At the end of the experiment, one tissue slice per condition was formalin-fixed and paraffin-embedded (FFPE), and processed for morphological and immunohistochemical analysis. An additional tissue slice collected at the end of the experiment was embedded in optimal cutting temperature, and snap-frozen for molecular or immunofluorescence studies.

LN229 cells = experiment: High-throughput screening: cell viability (resazurin), compounds with DMSO or Gamitrinib; assay type: cell-based, Human; conditions: for inhibition at 0.000128 µM / inhibition at 0.00064 µM / inhibition at 0.0032 µM / inhibition at […] / inhibition at 0.08 µM / inhibition at 0.4 µM / inhibition at 2 µM / inhibition at 10 µM: Homo sapiens, LN-229, read-out: Percent inhibition; for inhibition at 0.000128 µM: compound 0.000128 uM + DMSO (control); for inhibition at 0.00064 µM: compound 0.00064 uM + DMSO (control); for inhibition at 0.0032 µM: compound 0.0032 uM + DMSO (control); for inhibition at […]: compound 0.016 uM + DMSO (control); for inhibition at 0.08 µM: compound 0.08 uM + DMSO (control); for inhibition at 0.4 µM: compound 0.4 uM + DMSO (control); for inhibition at 2 µM: compound 2 uM + DMSO (control); for inhibition at 10 µM: compound 10 uM + DMSO (control)
Description: High-throughput screening and synergy experiments. Compounds for the molecular targeted cancer therapeutics were either purchased from SelleckChem or acquired under Material Transfer Agreement (MTA) with the Wistar Institute MTA. Compounds were suspended in DMSO. The purity and identity of the compounds was confirmed by LC/MS for a fraction of the compounds. Source plates with a 10 point dilution series (5-fold dilutions, ranging from 10-0.0001 μmol/L) were prepared for screening. […] Cell viability was determined by the addition of resazurin to a final concentration of 50 μM and incubation for 8 h. Fluorescence intensity (excitation, 560 nm, emission, 590 nm) was determined on an Envision Xcite Multilabel Reader (Perkin-Elmer), and the fractional growth inhibition was determined by normalizing assay wells to the aggregated average responses of positive control (10 μM doxorubicin) and negative control (0.2% DMSO) treatments (n=12).

Akt phosphorylation = Akt phosphorylation in tumor cell lines by Western blotting; assay type: cell-based, Human; conditions: PC3 cells, AZD6482 (10 μM), (0.4-2 μM) or BKM120 (0.4-2 μM), 48 h
LN229 or PC3 cells = experiment: Analysis of bioenergetics (ATP, glucose, lactate, oxygen consumption); assay type: cell-based, Human; conditions: PX-866 (10 μM), AZD6482 (10 μM) or GDC0941 (2 μM) for 48 h
class I PI3K isoforms = conditions: cited from earlier work
[3] = compound 0.000128 uM + Gamitrinib (1 μM)
[4] = compound 0.00064 uM + Gamitrinib (1 μM)
[5] = compound 0.0032 uM + Gamitrinib (1 μM)
[6] = compound 0.08 uM + Gamitrinib (1 μM)
[7] = compound 0.4 uM + Gamitrinib (1 μM)
[8] = compound 2 uM + Gamitrinib (1 μM)
[9] = compound 10 uM + Gamitrinib (1 μM)
[10] = compound 2.56E−05 uM + DMSO (control)
[11] = compound 2.56E−05 uM + Gamitrinib (1 μM)
[12] = compound 5.12E−06 uM + DMSO (control)
[13] = compound 5.12E−06 uM + Gamitrinib (1 μM)
[14] = compound […] + Gamitrinib (1 μM)

Row | Compound | inhibition at 0.000128 µM (LN229 cells) | inhibition at 0.00064 µM (LN229 cells) | inhibition at 0.0032 µM (LN229 cells) | inhibition at […] (LN229 cells) | inhibition at 0.08 µM (LN229 cells) | inhibition at 0.4 µM (LN229 cells) | inhibition at 2 µM (LN229 cells) | inhibition at 10 µM (LN229 cells) | Percent inhibition (LN229 cells; [3]) | Percent inhibition (LN229 cells; [4]) | Percent inhibition (LN229 cells; [5]) | Percent inhibition (LN229 cells; [6]) | Percent inhibition (LN229 cells; [7]) | Percent inhibition (LN229 cells; [8]) | Percent inhibition (LN229 cells; [9]) | Percent inhibition (LN229 cells; [10]) | Percent inhibition (LN229 cells; [11]) | Percent inhibition (LN229 cells; [12]) | Percent inhibition (LN229 cells; [13]) | Percent inhibition (LN229 cells; [14]) | also measured
1 | C=CCNC1=C2C[C@@H](C)C[C@H](OC)[C@H](O)[C@@H](C)/C=C(\C)[C@H](OC(N)=O)[C@@H](OC)/C=C\C=C(/C)C(=O)NC(=CC1=O)C2=O [17-AAG, 17-(allylamino)-17-demethoxygeldanamycin] | – | – | – | – | – | – | – | – | – | – | – | – | – | – | – | – | – | – | – | – | accumulation of phosphorylated Akt in response to PX-866 [1]: abolished the accumulation of phosphorylated Akt; phosphorylation of Akt on Ser473 [2]: had no effect
2 | Cc1cc([C@@H](C)Nc2ccccc2C(=O)O)c2nc(N3CCOCC3)cc(=O)n2c1 [AZD6482] | 11.8% | -10.5% | -4.1% | 10.8% | 21.7% | -7.43% | 5.91% | 43.4% | 123.03% | 128.16% | 123.40% | 111.71% | 114.08% | 133.90% | 141.10% | −2.03% | 119.70% | 3.23% | 129.84% | 118.13% | Akt phosphorylation (Akt phosphorylation): Akt phosphorylation was observed; ATP production (LN229 or PC3 cells): reduced ATP production; glucose utilization (LN229 or PC3 cells): less glucose utilization; lactate production (LN229 or PC3 cells): less
3 | Cn1c(=O)n(-c2ccc(C(C)(C)C#N)cc2)c2c3cc(-c4cnc5ccccc5c4)ccc3ncc21 [BEZ235] | -21.4% | 23.8% | 60.7% | 74.6% | 62.6% | 65.1% | 67.6% | 71.6% | 122.82% | 127.29% | 134.66% | 133.41% | 140.20% | 137.11% | 141.44% | −9.35% | 121.84% | −7.25% | 119.42% | 145.76% | –
4 | Nc1cc(C(F)(F)F)c(-c2cc(N3CCOCC3)nc(N3CCOCC3)n2)cn1 [BKM120] | 4.38% | 16.2% | 3.42% | 8.78% | 17.7% | 50.4% | 54.9% | 61.7% | 132.78% | 130.27% | 140.77% | 153.91% | 150.75% | 151.13% | 152.02% | 19.80% | 136.65% | 14.64% | 130.32% | 138.62% | Akt phosphorylation (Akt phosphorylation): Akt phosphorylation was observed
5 | CS(=O)(=O)N1CCN(Cc2cc3nc(-c4cccc5[nH]ncc45)nc(N4CCOCC4)c3s2)CC1 [GDC0941] | -14.7% | 7.03% | -17.3% | -0.14% | 21.2% | 29.8% | 58.9% | 64.8% | 124.43% | 133.55% | 19.20% | 121.46% | 134.46% | 140.39% | 156.27% | −27.15% | 104.45% | 0.41% | 125.94% | 126.85% | Akt phosphorylation (Akt phosphorylation): Akt phosphorylation was observed; ATP production (LN229 or PC3 cells): reduced ATP production; glucose utilization (LN229 or PC3 cells): less glucose utilization; lactate production (LN229 or PC3 cells): less
6 | COc1ncc(-c2ccc3nccc(-c4ccnnc4)c3c2)cc1NS(=O)(=O)c1ccc(F)cc1F [GSK458] | 8.89% | 11.3% | 38.1% | 52.4% | 67.5% | 58.1% | 63.1% | 53.6% | 135.48% | 139.64% | 139.92% | 133.47% | 138.84% | 142.85% | 156.27% | 1.66% | 128.82% | 17.03% | 132.69% | 136.49% | –
7 | FC(F)c1nc2ccccc2n1-c1nc(N2CCOCC2)nc(N2CCOCC2)n1 [ZSTK474] | – | – | – | – | – | – | – | – | – | – | – | – | – | – | – | – | – | – | – | – | PI3K activity (class I PI3K isoforms; 1 μM): 4.7 % of the control level; IC50 (class I PI3K isoforms; class I PI3K isoforms, mostly PI3Kδ): 37 nM
